# Marks after values point to notes of the source that are not given here.
# How the values were obtained:
# Format in all cases: in vivo
# [1] = system: Kunming mice; test: Influence on hypnosis effect with pentobarbital sodium doses below the threshold (25 mg/kg i.p.); conditions: pentobarbital sodium 25 mg/kg i.p. 60 min later, sleep observed in 30 min, n = 10
# Outline: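 Kunming mice (10 per group, half female) given single oral doses of 25, 50 or 100 mg/kg in 0.5% CMC-Na; 60 min later pentobarbital sodium 25 mg/kg i.p. Sleep (righting reflex lost >1 min) scored within 30 min as percentage asleep, χ2 test.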
# [2] = system: Kunming mice; test: Influence on hypnosis effect with pentobarbital sodium doses at the threshold (50 mg/kg i.p.); conditions: pentobarbital sodium 50 mg/kg i.p. 60 min later, x ± s, n = 10
# Outline: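 Kunming mice (10/group, half each sex) received compound in 0.5% CMC-Na intragastrically at 25, 50 or 100 mg/kg; 60 min later given 0.3% sodium pentobarbital 50 mg/kg i.p. Sleep latency and duration recorded by loss of righting reflex over 1 min; ANOVA and χ2 for sleep incidence.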
# [3] = system: Kunming mice; test: Influence on autonomic activity of normal mice (ZIL-2 mice autonomic activity meter, counts within 10 min); conditions: intragastric, x ± s; for Times of activities in 1 h after drug administration/10 min: 1 h after administration; for Times of activities in 2 h after drug administration/10 min: 2 h after administration; for Times of activities in 24 h after drug administration/10 min: 24 h after administration
# Outline: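 Kunming mice (10 per group, half each sex) were dosed at 25, 50 or 100 mg/kg in 0.5% CMC-Na. Spontaneous activity counts over 10 min were recorded at 1 h, 2 h and 24 h post-dose. Groups were compared by ANOVA with Dunnett's test after Levene's check.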
# [4] = test drug 25 mg/kg intragastric single dose
# [5] = test drug 50 mg/kg intragastric single dose
# [6] = test drug 100 mg/kg intragastric single dose
# [7] = 25 mg/kg intragastric single dose
# [8] = 50 mg/kg intragastric single dose
# [9] = 100 mg/kg intragastric single dose
Structure (SMILES),"Number of sleeping animals [1, 4]","rate of sleeping (%) [1, 4]","Number of sleeping animals [1, 5]","rate of sleeping (%) [1, 5]","Number of sleeping animals [1, 6]","rate of sleeping (%) [1, 6]","duration of sleep [2, 7]","time to sleep [2, 7]","duration of sleep [2, 8]","time to sleep [2, 8]","duration of sleep [2, 9]","time to sleep [2, 9]","Times of activities in 1 h after drug administration/10 min ([3]; 25 mg/kg, n = 10)","Times of activities in 2 h after drug administration/10 min ([3]; 25 mg/kg, n = 10)","Times of activities in 24 h after drug administration/10 min ([3]; 25 mg/kg, n = 10)","Times of activities in 1 h after drug administration/10 min ([3]; 50 mg/kg, n = 10)","Times of activities in 2 h after drug administration/10 min ([3]; 50 mg/kg, n = 10)","Times of activities in 24 h after drug administration/10 min ([3]; 50 mg/kg, n = 10)","Times of activities in 1 h after drug administration/10 min ([3]; 100 mg/kg, n = 10)","Times of activities in 2 h after drug administration/10 min ([3]; 100 mg/kg, n = 10)",also measured
"COc1ccc(-c2cc(=O)c3c(O)cc(OC)c(OC)c3o2)cc1O [Example 2, 5,3′-dihydroxyl-7,8,4′-trimethoxyl-flavone]",5,50** %,6,60** %,7,70** %,35.56 ± 15.89 min,6.61 ± 2.22 min,39.23 ± 23.45 min,4.95 ± 2.23 min,53.55 ± 22.04 min,3.92 ± 1.12 min,320.1 ± 54.7 /10 min,293.5 ± 40.8 /10 min,302.7 ± 77.5 /10 min,295.3 ± 41.8 /10 min,254.2 ± 41.1 /10 min,306.2 ± 90.6 /10 min,281.3 ± 47.6 /10 min,223.5 ± 45.7 /10 min,"Times of activities in 24 h after drug administration/10 min ([3]; 100 mg/kg, n = 10): 311.4 ± 80.3 /10 min"
CC=Cc1cc(C(=O)O)c2c(=O)cc(-c3ccc(C#N)c(C(=O)O)c3)oc2c1 [Example 40],4,40* %,6,60** %,7,70** %,21.71 ± 26.77 min,5.32 ± 2.47 min,27.68 ± 27.86 min,5.13 ± 2.64 min,61.35 ± 45.27 min,4.92 ± 1.26 min,291.4 ± 51.5 /10 min,276.0 ± 48.7 /10 min,311.2 ± 79.9 /10 min,245.7 ± 44.5 /10 min,223.6 ± 43.8 /10 min,288.9 ± 68.9 /10 min,145.7 ± 39.8 /10 min,169.8 ± 40.5 /10 min,"Times of activities in 24 h after drug administration/10 min ([3]; 100 mg/kg, n = 10): 301.5 ± 91.8 /10 min"
"COc1ccc(C2CC(=O)c3c(O)c(OC)c(OC)c(OC)c3O2)cc1OC (stereo not drawn) [Example 64, 5-hydroxyl-6,7,8,3′,4′-penta methoxyl-flavanone]",4,40* %,7,70** %,8,80*** %,24.78 ± 24.51 min,5.87 ± 2.32 min,48.23 ± 24.48 min,4.32 ± 1.29 min,53.43 ± 21.81 min,3.87 ± 2.43 min,,,,,,,,,"Times of activities in 1 h after drug administration/10 min ([3]; 25 mg/kg, n = 10, 25 mg/kg): 323.9 ± 45.4 /10 min; Times of activities in 2 h after drug administration/10 min ([3]; 25 mg/kg, n = 10, 25 mg/kg): 310.9 ± 55.9 /10 min; Times of activities in 24 h after drug administration/10 min ([3]; 25 mg/kg, n = 10, 25 mg/kg): 331.3 ± 94.5 /10 min; Times of activities in 1 h after drug administration/10 min ([3]; 50 mg/kg, n = 10, 50 mg/kg): 283.8 ± 60.4 /10 min; Times of activities in 2 h after drug administration/10 min ([3]; 50 mg/kg, n = 10, 50 mg/kg): 269.7 ± 44.6 /10 min; Times of activities in 24 h after drug administration/10 min ([3]; 50 mg/kg, n = 10, 50 mg/kg): 313.6 ± 93.1 /10 min; Times of activities in 1 h after drug administration/10 min ([3]; 100 mg/kg, n = 10, 100 mg/kg): 239.4 ± 35.6 /10 min; Times of activities in 2 h after drug administration/10 min ([3]; 100 mg/kg, n = 10, 100 mg/kg): 248.2 ± 44.7 /10 min; Times of activities in 24 h after drug administration/10 min ([3]; 100 mg/kg, n = 10, 100 mg/kg): 300.1 ± 81.3 /10 min"
"COc1ccc(-c2cc(=O)c3c(O)c(OC)c(OC)c(OC)c3o2)cc1OC [Example 11, 5-hydroxyl-6,7,8,3′,4′-penta methoxyl-flavone]",5,50** %,6,60** %,8,80*** %,47.25 ± 14.42 min,3.42 ± 1.37 min,63.75 ± 20.27 min,3.13 ± 1.21 min,78.54 ± 19.27 min,2.13 ± 1.33 min,243.1 ± 53.5 /10 min,237.3 ± 45.3 /10 min,291.7 ± 72.5 /10 min,187.2 ± 41.4 /10 min,179.7 ± 46.0 /10 min,287.8 ± 89.1 /10 min,115.9 ± 48.5 /10 min,126.7 ± 48.7 /10 min,"Times of activities in 24 h after drug administration/10 min ([3]; 100 mg/kg, n = 10): 315.2 ± 75.4 /10 min"
"COc1ccc(C2CC(=O)c3cc(OC)c(OC)c(OC)c3O2)cc1OC (stereo not drawn) [Example 45, 6,7,8,3′,4′-penta methoxyl-flavanone]",5,50** %,6,60** %,10,100*** %,59.67 ± 19.87 min,4.19 ± 1.78 min,66.42 ± 28.90 min,3.26 ± 1.24 min,90.03 ± 23.72 min,2.17 ± 1.14 min,235.6 ± 44.5 /10 min,223.2 ± 41.4 /10 min,299.2 ± 61.3 /10 min,136.6 ± 40.5 /10 min,123.3 ± 47.6 /10 min,291.5 ± 60.4 /10 min,112.5 ± 35.4 /10 min,105.6 ± 48.5 /10 min,"Times of activities in 24 h after drug administration/10 min ([3]; 100 mg/kg, n = 10): 288.8 ± 69.5 /10 min"
